In PubChem BioAssay (NCI):
Values joined by “and” are separate entries in the source; they are usually repeats but may differ in a detail not shown here. Equal values may be shown once.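 Grown in 96-well plates, cells were treated for 48 hours with each compound at five concentrations. Insufficient inhibition: endpoint recorded as highest concentration tested. GI50 is the concentration that inhibits growth by half. TGI: concentration producing complete growth inhibition.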

Tests used:
Assay in all cases: DTP human tumour cell line panel, 48 h
SK-MEL-2 melanoma = system: SK-MEL-2 melanoma
HOP-62 NSCLC = system: HOP-62 NSCLC
CAKI-1 renal = system: CAKI-1 renal
OVCAR-8 ovarian = system: OVCAR-8 ovarian
SK-OV-3 ovarian = system: SK-OV-3 ovarian
NCI-H460 lung = system: NCI-H460 lung
SN12C renal = system: SN12C renal
RXF 393 renal = system: RXF 393 renal
OVCAR-5 ovarian = system: OVCAR-5 ovarian
HS 578T breast = system: HS 578T breast

| Compound | GI50 (SK-MEL-2 melanoma) | GI50 (HOP-62 NSCLC) | GI50 (CAKI-1 renal) | TGI (CAKI-1 renal) | GI50 (OVCAR-8 ovarian) | TGI (OVCAR-8 ovarian) | TGI (SK-OV-3 ovarian) | GI50 (NCI-H460 lung) | GI50 (SN12C renal) | TGI (SN12C renal) | GI50 (RXF 393 renal) | TGI (OVCAR-5 ovarian) | GI50 (HS 578T breast) | TGI (HS 578T breast) | TGI (SK-MEL-2 melanoma) | TGI (HOP-62 NSCLC) | TGI (NCI-H460 lung) | TGI (RXF 393 renal) |
| --- | --- | --- | --- | --- | --- | --- | --- | --- | --- | --- | --- | --- | --- | --- | --- | --- | --- | --- |
| CCCC(=O)Nc1cc(C(=O)N2C[C@H]3C[C@@]34C2=CC(=O)c2[nH]cc(C)c24)n(COC)c1 | 0.13 µM | 0.104 µM | 0.175 µM | 1.03 µM and 0.52 µM | 0.13 µM | 0.343 µM and 0.392 µM | 5.36 µM | 0.135 µM | 0.168 µM | 4.18 µM and 0.684 µM | 0.106 µM | 50 µM | 0.267 µM | 2.88 µM and 0.989 µM | – | – | – | – |
| CN(C)S(=O)(=O)c1ccc2[nH]c(O)c(C3=Nc4ccccc4C3=O)c2c1 | – | – | – | > 100 µM | – | > 100 µM | 28.5 µM | – | – | > 100 µM | – | > 100 µM | – | 76.9 µM | 44.7 µM | 47.2 µM | 97.5 µM | 14.2 µM |
| CCOC(=O)Cc1c(C(=O)OCC)[n+](=O)c2cc(Cl)c(Cl)cc2n1[O-] | – | – | – | 11.1 µM | – | 6.2 µM | 11.9 µM | – | – | 6.95 µM | – | 5.24 µM | – | 6.46 µM | 7.73 µM | 4.27 µM | 3.46 µM | 4.91 µM |
| Cc1c(C#N)c2nnn(-c3cccc(Cl)c3)c(=O)n2c1-c1ccccc1 | – | – | – | > 100 µM | – | > 100 µM | > 100 µM | – | – | 62 µM | – | > 100 µM | – | > 100 µM | 8.95 µM | 7.81 µM | > 100 µM | 5.84 µM |
| Nc1nc(Sc2ccc([N+](=O)[O-])c3nonc23)c2[nH]cnc2n1 | – | – | – | 5.74 µM | – | 9.7 µM | 9.95 µM | – | – | 27.2 µM | – | 17.3 µM | – | 62.5 µM | 6.32 µM | 18.1 µM | 10.7 µM | 8.32 µM |
| COC(=O)c1ccccc1C1CN=NC12Cc1ccc(C)cc1C2=O (centres undefined) | – | – | – | > 100 µM | – | > 100 µM | > 100 µM | – | – | > 100 µM | – | > 100 µM | – | > 100 µM | > 100 µM | > 100 µM | > 100 µM | > 100 µM |
| COc1cccc(NC(=O)CC(=O)NN)c1 | – | – | – | > 100 µM | – | > 100 µM | > 100 µM | – | – | > 100 µM | – | > 100 µM | – | > 100 µM | > 100 µM | > 100 µM | > 100 µM | > 100 µM |
| Nc1cccc(-c2cc(=O)c3cc4c(cc3[nH]2)OCO4)c1 | – | – | – | > 100 µM | – | > 22.6 µM | > 28.5 µM | – | – | > 100 µM | – | > 100 µM | – | 6.56 µM | 5.72 µM | 29.2 µM | > 100 µM | > 100 µM |
| CC1(C)N=C(C(N)=O)c2[nH]cnc2N1 | – | – | – | > 100 µM | – | > 100 µM | > 100 µM | – | – | > 100 µM | – | > 100 µM | – | > 100 µM | > 100 µM | > 100 µM | > 100 µM | > 100 µM |
| CCOc1ccc2nc(NC(=O)C(=O)C3C(=O)C(CC4C(=O)c5ccccc5C4=O)C(=O)CC3(C)C)sc2c1 (centres undefined) | – | – | – | > 100 µM | – | > 100 µM | > 100 µM | – | – | > 100 µM | – | > 100 µM | – | > 100 µM | > 100 µM | > 100 µM | > 100 µM | > 100 µM |
| Clc1ccc(-c2cn3c(nc4ccccc43)c(-c3ccccc3)n2)cc1 | – | – | – | 32.1 µM | – | 33 µM | 26.5 µM | – | – | > 100 µM | – | > 55.9 µM | – | 66 µM | 38.8 µM | 24.6 µM | > 57.4 µM | > 49.2 µM |
| Nc1nc(N)c2nc(CN(C=O)c3ccc(C(=O)O)cc3)cnc2n1 | – | – | – | > 100 µM | – | > 100 µM | > 100 µM | – | – | > 100 µM | – | > 100 µM | – | > 100 µM | > 100 µM | > 100 µM | > 100 µM | > 100 µM |
| COC(=O)c1ccccc1CC1Cc2c(C)ccc(C)c2C1=O (centres undefined) | – | – | – | > 100 µM | – | > 100 µM | > 100 µM | – | – | > 100 µM | – | > 100 µM | – | > 100 µM | 38.4 µM | > 100 µM | > 100 µM | 51 µM |
| C[N+](C)(CCNc1ccc(NCC[N+](C)(C)Cc2ccc([N+](=O)[O-])cc2)c2c1C(=O)c1c(O)ccc(O)c1C2=O)Cc1ccc([N+](=O)[O-])cc1 | – | – | – | > 50 µM | – | > 50 µM | > 50 µM | – | – | > 50 µM | – | > 50 µM | – | > 50 µM | > 50 µM | > 50 µM | > 50 µM | > 50 µM |
| CCOC(=O)C(C)c1nc2cc(F)c(F)cc2[nH]c1=O (centres undefined) | – | – | – | > 100 µM | – | > 100 µM | > 100 µM | – | – | > 100 µM | – | > 100 µM | – | > 100 µM | > 100 µM | > 100 µM | > 100 µM | > 100 µM |
| Cc1sc(/N=C/C2=C(O)CC(C)(C)CC2=O)nc1-c1ccccc1 | – | – | – | > 100 µM | – | > 100 µM | > 100 µM | – | – | > 100 µM | – | > 100 µM | – | > 100 µM | > 100 µM | > 100 µM | > 100 µM | > 100 µM |
| CC(=O)O[C@H]1[C@@H](N2CCOCC2)C[C@H]2[C@@H]3CC=C4C[C@@H](N5CCCC5)CC[C@]4(C)[C@H]3CC[C@@]21C | – | – | – | > 100 µM | – | > 100 µM | > 100 µM | – | – | > 100 µM | – | > 100 µM | – | > 100 µM | > 100 µM | > 100 µM | > 100 µM | > 100 µM |
